Consider 2 compounds from US20250188091A1, “PYRIDONE COMPOUND HAVING INTEGRASE INHIBITORY ACTIVITY AND PHARMACEUTICAL USE THEREOF” (priority 2021, published 2025).

Read-outs that look alike come from different tables or passages of the source. Where only a bound is given, the exact number is not on record here.

Common to all, as to type: cell-based
Data set [1] deals with human immunodeficiency virus type 1 IIIB strain (HIV-1IIIB). The data set is described as follows: Cell protection assay against HIV infection (MT-4 cells, XTT). The following applies: for CC50/EC50: MT-4 cells, HIV-1IIIB. How it is done: The protective effect of the test compound on MT-4 cells infected by human immunodeficiency virus type 1 IIIB strain (HIV-1IIIB) at different concentrations was evaluated.
The test compound was dissolved in DMSO at a concentration of 10 mM and stored at −20° C.
2) Test of the anti-HIV-1 IIIB infection activity of the compound: A starting concentration of 10 nM was used, and five serial five-fold dilutions were carried out on the compound. Each compound was present in the test medium at a concentration 2 folds of the final desired test concentration. 100 microliters (100 μL) of the solution of each concentration was added to triplicate wells for efficacy evaluation, and each concentration was added one well for colorimetric evaluation. AZT was purchased from Sigma Aldrich (St. Louis, MO, USA), and evaluated as a control compound in the antiviral assay.
(§1) Cell culture: MT-4 cells were passaged in a T-75 flask before use in the antiviral assay. On the day before the assay, cells were passaged in aliquots at a 1:2 ratio to ensure that they were in the exponential growth phase at the time of infection. Total cells and viable cells were quantified using a hemocytometer and trypan blue dye. The proportion of viable cells used for the assay was greater than 95%. The cells were resuspended in tissue culture medium at 5×10^4 cells per milliliter, and the resulting suspension was added to a drug-containing microtiter plate in a volume of 50 μL.
Virus preparation: The virus used for this assay was lymphotropic virus strain HIV-1IIIB. The viruses were amplified in CEM-SS cells for the preparation of virus stock solution. The pre-titered virus aliquot tube was taken from the refrigerator (−80° C.), and slowly thawed to room temperature in a biosafety cabinet. The viruses were diluted in the tissue culture medium. 50 μl of the diluted virus would produce 85% to 95% cell killing 6 days after infection. 50 μL of the diluted virus was added immediately to the microtiter plate containing cells and drugs.
(§2) Evaluation of the efficacy and toxicity of the compound with XTT: After culturing for six days in a 37° C., 5% CO2 incubator, tetrazolium dye XTT (2,3-bis(2-methoxy-4-nitro-5-sulfophenyl)-5-[(phenylamino)carbonyl]-2H-tetrazolium hydroxide) was added to the cell culture plate to conduct the test. The XTT solution was a 1 mg/ml RPMI1640 stock solution prepared on the same day. Phenazine methyl sulfate (PMS) solution at a concentration of 0.15 mg/ml was prepared in PBS, and stored in the dark at −20° C. XTT/PMS stock solution was prepared before use by adding 40 μl of PMS per milliliter of XTT solution. […] of XTT/PMS was added to each well of the plate, and the plate was re-incubated for 4 hours at 37° C. The plate was sealed with adhesive plate sealant, and gently shaked or inverted several times to mix the soluble formazan product. The absorbance was read at 450/650 nm.

A short description of data set [2]: Test of cytotoxicity of the compound (MT-4 cells, XTT). The settings on record: human. How it is done: 1) Test of cytotoxicity of the compound: The test compound was evaluated using a starting concentration of 100 nM and five serial half-log dilutions. Each compound was present in the test medium at a concentration 2 folds of the final desired test concentration. The compound was diluted to 1 mM in DMSO. The compound was then diluted to 200 nM in a drug dilution tube containing 998 μL of test medium (adding 2 μL of 1 mM stock). […] of the 200 nM solution was transferred into 680 μL of the test medium (half-log dilution), and a total of five serial dilutions were carried out. 100 microliters (100 μL) of the solution of each concentration was added to duplicate wells for cytotoxicity evaluation, and each concentration was added to one well for colorimetric evaluation.
as §1, §2

For data set [3], the system named is WT (wild type) pseudovirus. The data set is described as follows: Pseudovirus-based assay of anti-HIV-1 activity, WT strain. The settings on record: HEK-293T, 72 h. How it is done: The inhibitory activity against pseudoviruses containing common clinical mutation sites of HIV-1 integrase (G140S/Q148R, Q148R/N155H, E138K, Q148H, R263K and Y143R/Q148H) was determined.
Preparation of pseudovirus: Using the lentiviral plasmid pNL4-3-Luc-RE (HedgehogBio) as the backbone, an integrase point mutation plasmid was constructed. HEK293T cells (ATCC) were seeded in a 6-well plate at 5×10^5 cells per well. After 24 hours, when the cell density reached 60% to 80%, transfection was performed. pNL4-3-Luc-R-E- or pNL4-3-Luc-R-E--IN-mutant plasmid and lentivirus packaging plasmid pMD2.G (Beijing Zoman Bio) were added to the transfection reagent in a certain proportion. Cell transfection was performed according to the instructions of transfection reagent PEI25K (Maokang Biotechnology). After 48 hours, the supernatant was collected, centrifuged at 3000 rpm for 5 minutes, filtered with a 0.45 μm microporous membrane, aliquoted, and stored at −80° C. for later use. In HEK293T cells, the pseudovirus titer was determined based on luciferase activity.
Determination of antiviral activity of compounds: In a 96-well V-bottom plate, the compound to be tested was diluted with DMSO semi-logarithmically, and a compound solution 4 times the final concentration was prepared for later use. According to the results of different virus titrations, the virus was diluted with complete culture medium for later use. HEK293T cells were digested with trypsin to obtain a cell suspension of 2×10^5/mL. 50 µl of compound diluent, 50 µl of virus diluent and 100 µl of cell suspension were added successively to a 96-well flat-bottomed plate. The final concentration of the compound was 1000 nM to 0.1 nM. The 96-well plate was incubated in a 37° C., 5% CO2 incubator. After 72 hours, 100 µL of culture supernatant was pipetted out carefully from each well of the 96-well plate, 25 µL of Steady-Glo detection reagent (Promega, Cat #E2550) was added to each well in the dark, and then assayed on a machine (Tecan, Type #Spark).

Data set [4] concerns HIV-1 clinical isolates (RW/92/009, MW/93/959, UG/92/001). The data set is described as follows: Clinical HIV-1 isolates in human PBMC (overall comparison). The following applies: RW/92/009, MW/93/959, UG/92/001 in human PBMC. How it is done: Preparation of virus: Clinical HIV-1 virus strains (Table 3) were obtained from the US NIH AIDS Research and Reference Reagent Library. PBMC were extracted from three fresh blood samples that were HIV and HBV seronegative, mixed and cultured, and PHA-P (phytohemagglutinin) was added to stimulate activation. The cells and virus were incubated at 37° C./5% CO2, and the cell culture supernatant after infection was collected and stored frozen at −80° C. Each viral titer was titrated in pooled PBMCs from three donors.
Assay of antiviral activity of compounds: Frozen PBMCs were resuspended in fresh culture medium (1×10^6 cells/mL), and added to a round-bottom 96-well plate ([…]). 100 μl of culture medium containing 2 times the final concentration of the compound was added to each well, and then 50 μL of virus solution was added (the final infection dose was MOI=0.002). After 7 days of culture, the reverse transcriptase activity in the supernatant was determined to evaluate HIV-1 replication. At the same time, a 96-well culture plate with only compounds and cells was prepared for the assay of compound cytotoxicity.

`C[C@H]1CO[C@@H]2Cn3cc(C(=O)NCc4ccc(F)cc4F)c(=O)c(O)c3C(=O)N12` [Cabotegravir, cabotegravir]: the 50% effective concentration (EC50) in data set [1] (Human immunodeficiency virus 1, MT4, 144 h, MT-4 cells infected by HIV-1IIIB, 6 days, XTT, read-out: EC50) turned out to be 2.4 nM. In addition, the CC50/EC50 in data set [1] is reported as >41.7. For the same compound, the CC50 at 6 days in data set [2] is > 100 nM. Besides, in data set [3], the EC50 worked out at 3 nM and the 90% effect level (EC90) was put at 21.8 nM.

On to `O=C(NCc1ccc(F)cc1F)c1cn2c(c(O)c1=O)C(=O)N1[C@@H](CF)CO[C@@H]1C2` [Compound 2], for which the half-maximal effective concentration (EC50) came out at 0.89 nM in data set [1] (Human immunodeficiency virus 1, IIIB, MT4, 144 h) and 1.8 nM in data set [3]. In addition, the CC50/EC50 in data set [1] is >112. Moreover, the CC50 at 6 days in data set [2] is > 100 nM. This compound returned an EC90 in data set [3] of 12.9 nM. In addition, the “activity compared with cabotegravir” value in data set [4] is “more active than cabotegravir”.
